Activity calls are given as the source filed them.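 The calls were made as follows: active = viability below 80%, treated as toxic; inactive = the rest.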
Test system: HEK-293 viability, CellTiter-Glo, 3 days
Assay: viability loss in HEK-293 cells – cell-based, powder set 1, set 2, cytotoxicity control for GRK2 aptamer-displacement inhibitor project, late-stage follow-up (AID 588540)
Conditions: at 20 µM; stronger effect = lower value

| Compound | viability |
| --- | --- |
| CCN(CC)c1ccc(NC(=O)CCS(=O)(=O)c2ccc(Br)cc2)c(C)c1 | 97.3% (inactive) |
| CC(=O)N1CCN(Cc2nc3cc(Cl)ccc3c(=O)[nH]2)CC1 | 124% (inactive) |
| CCOc1ccc(NC(=O)CCS(=O)(=O)c2ccc(Br)cc2)cc1 | 108% (inactive) |
| NS(=O)(=O)c1ccc(CCNC(=O)CCS(=O)(=O)c2ccc(Br)cc2)cc1 | 124% (inactive) |
| COc1ccc(Cl)cc1NC(=O)CCS(=O)(=O)c1ccc(Br)cc1 | 106% (inactive) |
| COC(=O)c1ccc(NC(=O)CCS(=O)(=O)c2ccc(Br)cc2)cc1 | 126% (inactive) |
| O=C(CN1CCc2ccccc21)NC(=O)NCc1ccccc1 | 56.1% |
| O=C(CCS(=O)(=O)c1ccc(Br)cc1)Nc1ccc(Br)cc1F | 116% (inactive) |
| Cc1ccccc1NC(=O)CCS(=O)(=O)c1ccc(Br)s1 | 94.2% (inactive) |
| O=C(CCS(=O)(=O)c1ccc(Br)s1)Nc1ccccc1Br | 71.3% |
| O=C(CSc1nc2ccccc2c(=O)n1-c1ccccc1)NC(=O)CN1CCCC1=O | 116% (inactive) |
| COC(=O)c1ccccc1NC(=O)CCS(=O)(=O)c1ccc(Br)s1 | 81.6% (inactive) |
| C#CCSc1nc2sc3c(c2c(=O)n1C)CCC3 | 92.8% (inactive) |
| Cc1ccc(CCNC(=O)CCS(=O)(=O)c2ccc(Br)cc2)cc1 | 126% (inactive) |
| O=C(CCS(=O)(=O)c1ccc(Br)cc1)NCc1cccs1 | 131% (inactive) |
| CC(CS(=O)(=O)c1ccc2c(c1)NC(=O)CS2)C(=O)NCc1ccccc1Cl (stereo not drawn) | 119% (inactive) |
| COc1ccc([N+](=O)[O-])cc1NC(=O)CCS(=O)(=O)c1ccc(Br)cc1 | 118% (inactive) |
| Cc1cc2ccccc2n1CCNC(=O)C(C)Oc1ccccc1 (stereo not drawn) | 68.6% |
| CCOc1ccccc1NC(=O)CCS(=O)(=O)c1ccc(Br)cc1 | 79.5% (inactive) |
| COc1ccc(CCNC(=O)CCS(=O)(=O)c2ccc(Br)cc2)cc1OC | 120% (inactive) |
| O=C(O)Cc1ccc(-n2cccc2)cc1 | 125% (inactive) |
| COc1ccc(NC(=O)CCS(=O)(=O)c2ccc(Br)s2)cc1 | 86.8% (inactive) |
| Cc1cccc(CCNC(=O)CCS(=O)(=O)c2ccc(Br)cc2)c1 | 129% (inactive) |
